The record followed here is patent publication US9994617B2, “Modulation of structured polypeptide specificity” (BICYCLE THERAPEUTICS LIMITED, priority 2011, dated 2018).

The target of experiment [1] is human plasma kallikrein (hPK) (Homo sapiens, UniProt P03952). Description: Enzyme inhibition assay, human plasma kallikrein.
The next experiment addresses Human thrombin (Homo sapiens, UniProt P00734). Put plainly: Inhibition of paralogous protease thrombin. It is filed as biochemical. The method, then: (§1) The target specificity of the isolated bicyclic peptide inhibitors was assessed by determining the inhibition of trypsin-like human serine proteases of the class S1A which comprises 79 members (Yousef, et al, Biochem Biophys Res Commun 2003, 305 (1), 28-36). The panel of proteases included hfXIa which shares the highest sequence identity with hPK (69%) as well as the structurally less related but vital human serine proteases thrombin (36%), plasmin (34% sequence identity with hPK) and factor XIIa (35%).

The target in experiment [2] is T1, Human factor XIIa (hfXIIa) (Homo sapiens, UniProt P00748).
T1 sequence (P00748 373-615 limits assumed): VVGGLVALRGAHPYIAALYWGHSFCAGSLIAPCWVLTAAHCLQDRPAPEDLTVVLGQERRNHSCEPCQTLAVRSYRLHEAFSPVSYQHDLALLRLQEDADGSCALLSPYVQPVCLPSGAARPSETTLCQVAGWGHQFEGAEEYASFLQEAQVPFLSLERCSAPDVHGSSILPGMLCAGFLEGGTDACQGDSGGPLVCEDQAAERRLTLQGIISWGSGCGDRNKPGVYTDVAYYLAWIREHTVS
Put plainly: Inhibition of paralogous protease factor XIIa. Format: biochemical. How it is done:
as §1

The target of another experiment is Human factor XIa (hfXIa) (Homo sapiens, UniProt P03951). Description: Inhibition of paralogous protease factor XIa. To be noted: highest concentration tested (100 μM). It is filed as biochemical. The method, then:
as §1

Experiment [3] addresses T2, Human plasma kallikrein (hPK) (human, UniProt P03952 20-638, limits assumed).
T2 construct: also called human PK; human kallikrein
Description: enzyme inhibition assay (fluorogenic substrate).

Experiment [4] addresses T2, Human plasma kallikrein (hPK). Put plainly: enzyme inhibition assay (fluorogenic substrate). This is another data set of the same source.
[5] abbreviates: highest concentration tested (100 μM).

Numbered stars: 1 amine (or outer) side, 2 acyl side, 3 side chain; on linkers, the order of the positions; unused ones are H or OH. Bridge positions count the residues as written; N and C are the ends. Square brackets hold non-standard residues; d marks the D form. Peptide text beside a SMILES is read from it. Arg(Me2a) = CN(C)C(=N)NCCC[C@H](N)C(=O)O; Arg(Me2s) = CN=C(NC)NCCC[C@H](N)C(=O)O; TBMB = c1c(C[*:1])cc(C[*:3])cc1C[*:2]

Sequence of human plasma kallikrein (hPK) (P03952 20-638): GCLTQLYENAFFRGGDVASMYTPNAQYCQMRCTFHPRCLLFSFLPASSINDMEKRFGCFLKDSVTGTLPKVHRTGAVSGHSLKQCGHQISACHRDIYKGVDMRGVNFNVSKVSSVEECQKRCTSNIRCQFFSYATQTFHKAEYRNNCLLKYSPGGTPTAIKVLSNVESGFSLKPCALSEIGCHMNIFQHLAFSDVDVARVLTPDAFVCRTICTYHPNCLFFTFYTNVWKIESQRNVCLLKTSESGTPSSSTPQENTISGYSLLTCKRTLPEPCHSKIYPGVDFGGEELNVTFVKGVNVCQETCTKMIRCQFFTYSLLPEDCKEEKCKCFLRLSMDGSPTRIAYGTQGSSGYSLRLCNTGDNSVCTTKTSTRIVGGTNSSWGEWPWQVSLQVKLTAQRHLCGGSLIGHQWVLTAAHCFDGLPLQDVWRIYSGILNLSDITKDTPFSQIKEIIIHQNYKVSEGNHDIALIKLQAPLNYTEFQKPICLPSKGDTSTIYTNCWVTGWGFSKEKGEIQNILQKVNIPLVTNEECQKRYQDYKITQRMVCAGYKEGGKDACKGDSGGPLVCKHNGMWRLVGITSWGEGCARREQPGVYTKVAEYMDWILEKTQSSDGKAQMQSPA
T2 sequence (P03952 20-638 limits assumed): as the sequence (P03952 20-638) above
Sequence of Human factor XIa (hfXIa) (P03951 388-625 limits assumed): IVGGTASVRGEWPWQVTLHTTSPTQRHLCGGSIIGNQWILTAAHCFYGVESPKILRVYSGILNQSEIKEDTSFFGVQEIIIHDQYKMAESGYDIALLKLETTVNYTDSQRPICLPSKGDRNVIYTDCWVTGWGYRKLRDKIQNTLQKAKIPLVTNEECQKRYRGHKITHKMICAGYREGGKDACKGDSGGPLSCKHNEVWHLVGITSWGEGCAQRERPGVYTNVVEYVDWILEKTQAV
Sequence of Human factor XIa (hfXIa) (P03951 19-387 partner limits assumed): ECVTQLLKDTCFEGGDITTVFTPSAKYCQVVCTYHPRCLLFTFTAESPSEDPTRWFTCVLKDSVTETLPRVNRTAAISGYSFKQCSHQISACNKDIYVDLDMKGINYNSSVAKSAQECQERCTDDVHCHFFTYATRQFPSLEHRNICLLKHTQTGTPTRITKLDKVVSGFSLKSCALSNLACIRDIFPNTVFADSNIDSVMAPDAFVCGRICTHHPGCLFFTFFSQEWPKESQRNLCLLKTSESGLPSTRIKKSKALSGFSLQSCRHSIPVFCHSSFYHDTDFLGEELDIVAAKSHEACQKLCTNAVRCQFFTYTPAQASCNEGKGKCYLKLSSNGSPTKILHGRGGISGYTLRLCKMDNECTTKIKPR

Broadly, the Ki is the dissociation constant of the complex between target and ligand, obtained from inhibition or displacement. Lower therefore signals a stronger hold on the target. The term IC50 denotes the point on the concentration scale where inhibition reaches its midpoint. Lower therefore signals greater potency in that assay. `CC(C)C[C@@H]1NC(=O)[C@H](CC(=O)O)NC(=O)[C@H](CCC(N)=O)NC(=O)[C@H](Cc2c[nH]cn2)NC(=O)[C@H](CC(N)=O)NC(=O)[C@@H]2CSCc3cc(cc(c3)CSC[C@@H](C(=O)N[C@@H](C)C(N)=O)NC1=O)CSC[C@H](NC(=O)[C@H](C)N)C(=O)N[C@@H](CO)C(=O)N[C@@H](Cc1c[nH]c3ccccc13)C(=O)N1CCC[C@H]1C(=O)N[C@@H](C)C(=O)N[C@@H](CCCNC(=N)N)C(=O)N2` [Peptide 06-57] (H-ACSWPARCNHQDLCA-NH2; linker 2-8-14 via TBMB) had a Ki in experiment [1] of 0.4 nM. For the same molecule, the IC50 (on Human thrombin; in experiment [2]) was above 10000 nM throughout.

In experiment [1], `CC(C)C[C@@H]1NC(=O)[C@@H]2CSCc3cc(cc(c3)CSC[C@@H](C(=O)N[C@@H](C)C(N)=O)NC(=O)[C@H](Cc3ccc(O)cc3)NC(=O)[C@H](CC(=O)O)NC(=O)[C@H](CCC(N)=O)NC(=O)[C@H](Cc3c[nH]cn3)NC1=O)CSC[C@H](NC(=O)[C@H](C)N)C(=O)N[C@@H](CO)C(=O)N[C@@H](Cc1c[nH]c3ccccc13)C(=O)N1CCC[C@H]1C(=O)N[C@@H](Cc1ccc(O)cc1)C(=O)N[C@@H](CCCNC(=N)N)C(=O)N2` [Peptide 06-61] (H-ACSWPYRCLHQDYCA-NH2; linker 2-8-14 via TBMB) came in with a Ki of 5.8 nM. Moreover, the half-inhibitory concentration (IC50) (against Human thrombin; in experiment [2]) was above 10000 nM throughout.

For the molecule `C[C@H](N)C(=O)N[C@H]1CSCc2cc3cc(c2)CSC[C@H](NC(=O)[C@H](CCCNC(=N)N)NC(=O)[C@H](C)NC(=O)[C@@H]2CCCN2C(=O)[C@H](Cc2c[nH]c4ccccc24)NC(=O)[C@H]([C@@H](C)O)NC1=O)C(=O)N[C@@H]([C@@H](C)O)C(=O)N[C@@H](Cc1c[nH]cn1)C(=O)N[C@@H](CCC(N)=O)C(=O)N[C@@H](CC(N)=O)C(=O)N[C@@H](Cc1c[nH]c2ccccc12)C(=O)N[C@H](C(=O)N[C@@H](C)C(N)=O)CSC3` [Peptide 06-09] (H-ACTWPARCTHQNWCA-NH2; linker 2-8-14 via TBMB), the Ki in experiment [1] came to 1.2 nM. Further, the IC50 (against Human thrombin; in experiment [2]) was above 10000 nM throughout.

Turning to `CSCC[C@@H]1NC(=O)[C@H](CCC(=O)O)NC(=O)[C@H](CCC(N)=O)NC(=O)[C@H](Cc2c[nH]cn2)NC(=O)[C@H]([C@@H](C)O)NC(=O)[C@@H]2CSCc3cc(cc(c3)CSC[C@@H](C(=O)N[C@@H](C)C(N)=O)NC1=O)CSC[C@H](NC(=O)[C@H](C)N)C(=O)NCC(=O)N[C@@H](C(C)C)C(=O)N1CCC[C@H]1C(=O)N[C@@H](Cc1ccc(O)cc1)C(=O)N[C@@H](CCCNC(=N)N)C(=O)N2` [06-64 T] (H-ACGVPYRCTHQEMCA-NH2; linker 2-8-14 via TBMB), the Ki in experiment [1] was found to be 6.9 nM. Further, the IC50 (on Human thrombin; in experiment [2]) was above 10000 nM each time.

As to `CC(C)C[C@@H]1NC(=O)[C@@H]2CSCc3cc(cc(c3)CSC[C@@H](C(=O)N[C@@H](C)C(N)=O)NC(=O)[C@@H]3CCCN3C(=O)[C@H](CCCNC(=N)N)NC(=O)[C@H](CCCNC(=N)N)NC(=O)[C@H](Cc3ccccc3)NC1=O)CSC[C@H](NC(=O)[C@H](C)N)C(=O)N[C@@H](C)C(=O)N[C@@H](CC(=O)O)C(=O)N1CCC[C@H]1C(=O)N[C@@H](Cc1c[nH]c3ccccc13)C(=O)N[C@@H](C)C(=O)N2` [06-63 T] (H-ACADPWACLFRRPCA-NH2; linker 2-8-14 via TBMB), in experiment [1], the Ki was 1280 nM. Further, the IC50 (on Human thrombin; in experiment [2]) was above 10000 nM each time.

The molecule `CC(C)C[C@@H]1NC(=O)[C@@H]2CSCc3cc(cc(c3)CSC[C@@H](C(=O)N[C@@H](C)C(N)=O)NC(=O)[C@H](CC(C)C)NC(=O)[C@H](CC(=O)O)NC(=O)[C@H]([C@@H](C)O)NC(=O)[C@H](Cc3c[nH]cn3)NC1=O)CSC[C@H](NC(=O)[C@H](C)N)C(=O)N[C@@H](CC(N)=O)C(=O)N[C@@H](Cc1c[nH]c3ccccc13)C(=O)N1CCC[C@H]1C(=O)N[C@@H](Cc1ccc(O)cc1)C(=O)N[C@@H](CCCNC(=N)N)C(=O)N2` [Peptide 06-157] (H-ACNWPYRCLHTDLCA-NH2; linker 2-8-14 via TBMB) gave a Ki in experiment [1] of 3.3 nM. Further, the IC50 (against Human thrombin; in experiment [2]) was above 10000 nM each time.

For the molecule `CSCC[C@@H]1NC(=O)[C@H]([C@@H](C)O)NC(=O)[C@@H]2CSCc3cc(cc(c3)CSC[C@@H](C(=O)N[C@@H](C)C(N)=O)NC(=O)[C@H](Cc3c[nH]c4ccccc34)NC(=O)[C@H](CC(N)=O)NC(=O)[C@H](CCC(N)=O)NC1=O)CSC[C@H](NC(=O)[C@H](C)N)C(=O)N[C@@H]([C@@H](C)O)C(=O)N[C@@H](Cc1c[nH]c3ccccc13)C(=O)N1CCC[C@H]1C(=O)N[C@@H](C)C(=O)N[C@@H](CCCNC(=N)N)C(=O)N2` [06-A2*] (H-ACTWPARCTMQNWCA-NH2; linker 2-8-14 via TBMB), in experiment [1], the Ki was 181 nM. Further, the IC50 in experiment [2] was above 10000 nM.

Consider `CC(C)C[C@@H]1NC(=O)[C@H](CC(N)=O)NC(=O)[C@H](CCC(N)=O)NC(=O)[C@H](Cc2c[nH]cn2)NC(=O)[C@H](CC(C)C)NC(=O)[C@@H]2CSCc3cc(cc(c3)CSC[C@@H](C(=O)N[C@@H](C)C(N)=O)NC1=O)CSC[C@H](NC(=O)[C@H](C)N)C(=O)N[C@@H]([C@@H](C)O)C(=O)N[C@@H](Cc1ccc(O)cc1)C(=O)N1CCC[C@H]1C(=O)N[C@@H](Cc1ccc(O)cc1)C(=O)N[C@@H](CCCCN)C(=O)N2` [Peptide 2A10] (H-ACTYPYKCLHQNLCA-NH2; linker 2-8-14 via TBMB), for which the inhibition constant Ki in experiment [1] came to 4.98 nM. Further, the “inhibition of hfXIa” value at Human factor XIa (hfXIa) is reported as “did not inhibit”. Besides, the inhibition of thrombin entry on Human thrombin (setting [5]) is given as “did not inhibit”. In addition, the “inhibition of factor XIIa” value in experiment [2] (setting [5]) is given as “did not inhibit”.

In turn, `CC(C)C[C@@H]1NC(=O)[C@H](CO)NC(=O)[C@H]([C@@H](C)O)NC(=O)[C@H]([C@@H](C)O)NC(=O)[C@H](CC(C)C)NC(=O)[C@@H]2CSCc3cc(cc(c3)CSC[C@@H](C(=O)N[C@@H](C)C(N)=O)NC1=O)CSC[C@H](NC(=O)[C@H](C)N)C(=O)N[C@@H](CCCNC(=N)N)C(=O)N[C@@H](Cc1c[nH]c3ccccc13)C(=O)N1CCC[C@H]1C(=O)N[C@@H](C)C(=O)N[C@@H](CCCNC(=N)N)C(=O)N2` [Peptide 06-59] (H-ACRWPARCLTTSLCA-NH2; linker 2-8-14 via TBMB) yielded an inhibition constant (Ki) in experiment [1] of 0.5 nM. Also, the IC50 (on Human thrombin; in experiment [2]) was above 10000 nM each time.

B1: Ac-(06-34-18) D-Ala4 (peptide)
peptide: Ac-CSWP[dA]RCLHQDLC-NH2
modifications: linker 1-7-13 via TBMB
SMILES: CC(=O)N[C@H]1CSCc2cc3cc(c2)CSC[C@H](NC(=O)[C@H](CCCNC(=N)N)NC(=O)[C@@H](C)NC(=O)[C@@H]2CCCN2C(=O)[C@H](Cc2c[nH]c4ccccc24)NC(=O)[C@H](CO)NC1=O)C(=O)N[C@@H](CC(C)C)C(=O)N[C@@H](Cc1c[nH]cn1)C(=O)N[C@@H](CCC(N)=O)C(=O)N[C@@H](CC(=O)O)C(=O)N[C@@H](CC(C)C)C(=O)N[C@H](C(N)=O)CSC3
On to B1, for which the “fold reduction of affinity against Ac-06-34-18 wildtype” value in experiment [3] was determined as 7000 fold.

B2: Ac-(06-34-18) D-Trp2 (peptide)
peptide: Ac-CS[dW]PARCLHQDLC-NH2
modifications: linker 1-7-13 via TBMB
SMILES: CC(=O)N[C@H]1CSCc2cc3cc(c2)CSC[C@H](NC(=O)[C@H](CCCNC(=N)N)NC(=O)[C@H](C)NC(=O)[C@@H]2CCCN2C(=O)[C@@H](Cc2c[nH]c4ccccc24)NC(=O)[C@H](CO)NC1=O)C(=O)N[C@@H](CC(C)C)C(=O)N[C@@H](Cc1c[nH]cn1)C(=O)N[C@@H](CCC(N)=O)C(=O)N[C@@H](CC(=O)O)C(=O)N[C@@H](CC(C)C)C(=O)N[C@H](C(N)=O)CSC3
In the case of B2, in experiment [3], the “fold loss in potency against Ac-06-34-18 wildtype” value came out at 45000 fold.

B3: Ac-(06-34-18) NDMA5 (peptide)
peptide: Ac-CSWPA[Arg(Me2a)]CLHQDLC-NH2
modifications: linker 1-7-13 via TBMB
SMILES: CC(=O)N[C@H]1CSCc2cc3cc(c2)CSC[C@H](NC(=O)[C@H](CCCNC(=N)N(C)C)NC(=O)[C@H](C)NC(=O)[C@@H]2CCCN2C(=O)[C@H](Cc2c[nH]c4ccccc24)NC(=O)[C@H](CO)NC1=O)C(=O)N[C@@H](CC(C)C)C(=O)N[C@@H](Cc1c[nH]cn1)C(=O)N[C@@H](CCC(N)=O)C(=O)N[C@@H](CC(=O)O)C(=O)N[C@@H](CC(C)C)C(=O)N[C@H](C(N)=O)CSC3
In experiment [4], B3 showed a Ki of 510 nM. That is a sub-micromolar value.

B4: Ac-(06-34-18) SDMA5 (peptide)
peptide: Ac-CSWPA[Arg(Me2s)]CLHQDLC-NH2
modifications: linker 1-7-13 via TBMB
SMILES: CN=C(NC)NCCC[C@@H]1NC(=O)[C@H](C)NC(=O)[C@@H]2CCCN2C(=O)[C@H](Cc2c[nH]c3ccccc23)NC(=O)[C@H](CO)NC(=O)[C@@H](NC(C)=O)CSCc2cc3cc(c2)CSC[C@H](NC1=O)C(=O)N[C@@H](CC(C)C)C(=O)N[C@@H](Cc1c[nH]cn1)C(=O)N[C@@H](CCC(N)=O)C(=O)N[C@@H](CC(=O)O)C(=O)N[C@@H](CC(C)C)C(=O)N[C@H](C(N)=O)CSC3
B4 yielded a Ki in experiment [4] of 1420 nM.
